Laboratory results published in patent US9187459B2, “Quinazoline-7-ether compounds and methods of use” (NewGen Therapeutics, Inc., priority 2011, dated 2015).
Blank lines part the entries; values can stand above or below the compound they belong to.

Columns and labels:
ErbB2 (HER2) = ErbB2 (HER2) (Homo sapiens (Human), UniProt P04626); assay: Kinase inhibition assay (TR-FRET, LanthaScreen), ErbB2 (HER2); type: biochemical; conditions: ATP 1 mM
Protocol: 1) The compound is dissolved in DMSO to prepare a 10 mM solution, and was diluted to 100 micoM with water. […] Kinase activity was determined with time-resolved Fret (TR-FRET) assay (LanthaScreen® kinase activity assay, from InVitrogen).
2) The assay is performed in a Black 384-well plate (from Corning). The kinase and the compound was incubated for […] at room temperature. ATP (1 mM) and fluorescein-poly GT were added, and the reaction was incubated for […]. Detection agent SA-XL665 (from Cisbio Assay) and TK Ab-Cryptate detection antibody (from InVitrogen) were added to stop the reaction.
3) The 384-well plate was sealed and incubated for 1 hour. The fluorescence was then measured at […] (Cryptate) and 665 nM (XL655) wavelength.
4) Each concentration of compound was done in triplicate, and vehicle (without compound) and a positive control were used.
Data process: the ratio of fluorescence is calculated (value of fluorescence 665 nM over […]). The results are calculated from: signal=compound fluorescence ratio−vehicle ratio, and the IC50 was calculated based on inhibition curve.

[1] = tested on: Human breast cancer BT474 cells; assay: Cell proliferation inhibition assay for BT474 (CCK-8); type: cell-based; conditions: BT-474, 72 h, text calls it EC50
Protocol: 1) Human breast cancer BT474 cells were plated 10000 cells/well in a 96-well clear tissue culture plate. The cells were incubated for 24 h at 37° C. to allow adherence.
2) A serials of concentrations of each compound (ranging from 30 uM to 0.16 nM, 5-fold dilution) in 96-well plate, and incubated for 72 h. Each concentration was tested in triplicate. During the cell proliferation assay, BT474 cells were cultured in the complete cell culture solution (low-glucose DMEM containing 5% FBS, 50 ug/ml gentamicin).
3) The culture medium was removed via aspiration, and the cell viability was detected by CCK-8 cell proliferation kit.
4) The EC50 was calculated based on the proliferation curve.

NCI-N87 xenograft = assay: In vivo efficacy in NCI-N87 xenograft mouse model
Protocol: NCI-N87 cell line was purchased from ATCC (American Type Culture Collection) and was cultured in RPMI1640+10% FBS+1% P/S antibiotics.
Male Balb/c nude mice, 6-8 week, 18±2 g (supplier: Shanghai SLAC Laboratory Animal Co. Ltd.) were used for the experiment. The purchased mice were adapted to the environment for 7 days before use, and were housed at 22-25° C. with humidity 40-70%, and light cycle with fluorescent light for 12-hour light (8:00-20:00) 12-hour dark. The mice have free access to food and water.
The cancer cells (NCI-N87) were implanted subcutaneous into the nude mice (right flank) with 5.0×10^6 cells in 0.1 ml PBS (50 mice). When the tumor size reaches a volume of 200 (150-200) mm^3, the tumor-bearing nude mice were randomly assigned into groups (10 mice/group), one group was served as vehicle, one group was administrated with Lapatinib ditosylate monoydrate (80 mg/kg, free base of Lapatinib, not salt, p.o. bid). The other two groups were administrated with NT112 (15 and 30 mg/kg, p.o. q.d, respectively). The administration period lasted for 4 weeks.
The mice were monitored twice daily for appearance and behavior, and for signs of morbidity and/or mortality. The tumor volume was measured twice a week, and the body weight was measured immediately before measuring the tumor volume throughout the whole study.
At end of the experiment (compound administration for four weeks), all the tumor-bearing mice were sacrificed by cervical dislocation under deep anesthesia. The tumor mass was resected, and weighed.
Tumor sizes were measured twice weekly in two dimensions using a caliper, and the volume was expressed in mm^3 using the formula: V=½×a×b^2 where a and b are the long and short diameters of the tumor, respectively. The tumor mass was weighed at the end of the experiment after harvested. V=½×a×b^2 (a, b is maximum and minimum diameters respectively). RTV(Relative Tumor Volume)=Vt/Vo • Vo is the tumor volume when the test article is initial administrated • Vt is the tumor volume of every measurement day after test article administration T/C(%)=TRTV/CRTV×100% • TRTV: RTV of test article-treatment group; CRTV: RTV of control group Inhibition rate (%)=(average tumor volume of control group−average cancer volume of test article treatment group)/average tumor volume of control group×100%

[2] = Pharmacokinetics studies in rats; type: in vivo, Sprauge Dawley rats; conditions: for bioavailability / AUC(0-inf) / AUC(0-t) / Cmax / clearance / half-life / Vd: male, Sprague-Dawley; for bioavailability: plasma, rat; for AUC(0-inf) / AUC(0-t) / Cmax / clearance / half-life / Vd / CL / Vz: rat plasma; for Vd: read-out: Vz
Protocol: (§1) The test article each was dissolved in 10% DMSO and 90% of (40% HP-β-CD in deionized water) to yield concentration at 0.4 mg/mL for intravenous administration, and 1 mg/mL for oral administration.
(§2) Method development and plasma samples analysis were performed by Analytical Sciences Division of the Testing Facility by means of LC-MS/MS. The analytical results were confirmed using quality control samples for intra-assay variation (within day variation). The accuracy of >66% of the quality control samples was between 80-120% of the known value(s).
Each group consisted 3 male Sprauge Dawley rats (7-8 week old, 200-300 g body weight). The test articles were administered by a single bolus intravenous injection via the lateral tail vein or via oral gavage.
Blood samples (approximately 300 μl) were collected via retro-orbital puncture after anaesthesia using mixed gas (CO2:O2=7:3) into tubes containing EDTA-K3 anticoagulant at appropriate time points. 10 time points (Groups 1-2): Pre-dose and post-dose at 5 min, 15 min, 30 min, 1 h, 2 h, 4 h, 6 h, 8 h and 24 h.
The PK blood samples were processed and analyzed using the same methods as in Example 10.

[3] = Pharmacokinetics studies in mice; type: in vivo, CD-1 mice; conditions: for bioavailability: CD-1, plasma, mouse; for AUC(0-inf) / AUC(0-t) / Cmax / half-life / MRT: CD-1, mouse plasma
Protocol: as §1, §2
Each group is consisted 30 CD-1 mice (supplied by Sino-British SIPPR/BK Lab. Animal Ltd., Co, Shanghai), 5-8 week old, 20-28 g body weight. The test articles were administered by a single bolus intravenous injection or via oral gavage.
Any animals in poor health were identified for further monitoring or possible euthanasia.
Blood samples (at least 300 μL/sample) were collected via cardiac puncture after euthanasia by carbon dioxide inhalation at appropriate time points for determination of the plasma concentrations of the test article. Samples were placed in tubes containing K3-EDTA and stored on ice until centrifuged.
Three mice in each group were used for blood collection at each of the 10 time points (Groups 1-10): Pre-dose and post-dose at 5 min, 15 min, 30 min, 1 h, 2 h, 4 h, 6 h, 8 h and 24 h.
The PK blood samples were centrifuged at approximately 8000 rpm for 6 minutes at 2-8° C. and the resulting plasma were separated and stored frozen at approximately −80° C. (following separation, the plasma may be initially placed on ice prior to being stored in the −80° C. freezer). All the plasma samples were labeled with detailed information such as study number, animal number, matrix, time points of collection and date of collection.
Standard set of parameters including Area Under the Curve (AUC(0-t) and AUC(0-∞)), elimination half-live (T1/2), maximum plasma concentration (Cmax), time to reach maximum plasma concentration (Tmax), clearance (CL), and volume of distribution (Vz) were calculated using noncompartmental analysis modules in FDA certified pharmacokinetic program WinNonlin Professional v5.2 (Pharsight, USA) by the Study Director. Furthermore, the Bioavailability was estimated using the following formula:
• AUC(0-t) Area under the curve from the time of dosing to the last measurable concentration • AUC(0-∞) Area under the curve from the time of dosing extrapolated to infinity, based on the last observed concentration • CL Total body clearance, CL=Dose/AUC • Cmax Maximum observed concentration, occurring at Tmax • F Bioavailability • MRT(0-∞) Mean residence time from the time of dosing to infinity • Tmax Time of maximum observed concentration • T1/2 Terminal half-life=ln(2)λz • Vz Volume of distribution based on the terminal phase

Sequence of ErbB2 (HER2) (P04626 23-1255): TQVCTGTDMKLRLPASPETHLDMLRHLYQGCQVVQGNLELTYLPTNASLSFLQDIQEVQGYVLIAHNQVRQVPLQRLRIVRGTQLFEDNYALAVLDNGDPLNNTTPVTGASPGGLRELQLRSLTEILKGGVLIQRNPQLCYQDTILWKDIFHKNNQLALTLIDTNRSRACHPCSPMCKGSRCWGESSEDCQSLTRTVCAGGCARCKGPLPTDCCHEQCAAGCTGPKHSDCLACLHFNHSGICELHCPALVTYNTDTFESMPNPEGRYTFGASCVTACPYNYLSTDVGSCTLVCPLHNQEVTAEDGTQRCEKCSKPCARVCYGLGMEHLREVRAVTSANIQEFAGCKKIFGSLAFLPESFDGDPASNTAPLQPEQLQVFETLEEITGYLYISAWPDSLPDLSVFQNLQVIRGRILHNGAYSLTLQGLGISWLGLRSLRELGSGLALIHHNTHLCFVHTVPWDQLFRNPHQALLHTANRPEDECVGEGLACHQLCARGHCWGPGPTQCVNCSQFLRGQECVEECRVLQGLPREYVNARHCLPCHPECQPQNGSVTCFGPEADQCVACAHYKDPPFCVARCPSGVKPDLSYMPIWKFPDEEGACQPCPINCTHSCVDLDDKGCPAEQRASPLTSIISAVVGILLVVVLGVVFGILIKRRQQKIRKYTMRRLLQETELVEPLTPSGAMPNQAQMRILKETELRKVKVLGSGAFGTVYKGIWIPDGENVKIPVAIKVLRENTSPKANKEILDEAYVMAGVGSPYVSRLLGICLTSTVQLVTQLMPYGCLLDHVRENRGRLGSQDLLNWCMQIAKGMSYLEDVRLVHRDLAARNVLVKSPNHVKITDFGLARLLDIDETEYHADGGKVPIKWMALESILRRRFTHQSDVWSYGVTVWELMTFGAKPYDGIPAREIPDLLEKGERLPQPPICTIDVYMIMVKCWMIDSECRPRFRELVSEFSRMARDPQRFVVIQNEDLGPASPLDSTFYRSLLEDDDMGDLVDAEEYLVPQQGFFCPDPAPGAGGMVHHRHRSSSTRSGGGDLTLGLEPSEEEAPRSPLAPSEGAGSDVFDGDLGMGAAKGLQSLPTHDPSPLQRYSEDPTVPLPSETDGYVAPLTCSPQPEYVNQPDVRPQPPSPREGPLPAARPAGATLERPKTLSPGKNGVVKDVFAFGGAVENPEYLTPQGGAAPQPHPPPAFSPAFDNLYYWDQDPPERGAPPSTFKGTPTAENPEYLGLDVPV

SMILES: CN(C)C/C=C/C(=O)Nc1cc2c(Nc3ccc(F)c(Cl)c3)ncnc2cc1OC[C@]12COC[C@H]1C2 [Example 3, (E)-N-(7-(((1S,5S)-3-oxa-bicyclo[3.1.0]hexan-1-yl)methoxy)-4-(3-chloro-4-fluorophenylamino)quinazolin-6-yl)-4-(dimethylamino)but-2-enamide]
IC50 (ErbB2 (HER2)): 23 nM
IC50 [1]: 31.8 nM

SMILES: CN(C)C/C=C/C(=O)Nc1cc2c(Nc3ccc(F)c(Cl)c3)ncnc2cc1OC[C@@]12COC[C@@H]1C2 [Example 4, (E)-N-(7-(((1R,5R)-3-oxa-bicyclo[3.1.0]hexan-1-yl)methoxy)-4-(3-chloro-4-fluorophenylamino)quinazolin-6-yl)-4-(dimethylamino)but-2-enamide]
IC50 (ErbB2 (HER2)): 22 nM
IC50 [1]: 25.6 nM

SMILES: CS(=O)(=O)CCNCc1ccc(-c2ccc3ncnc(Nc4ccc(OCc5cccc(F)c5)c(Cl)c4)c3c2)o1 [Lapatinib, reference compound]
RTV T/C (NCI-N87 xenograft; day 7, 80 mg/kg p.o. bid): 31%
tumor growth inhibition rate (NCI-N87 xenograft; day 7, 80 mg/kg p.o. bid): 69%
tumor inhibition rate (NCI-N87 xenograft; day 28 (last day of the study), 80 mg/kg p.o. bid): 92.9%

SMILES: CN(C)C/C=C/C(=O)Nc1cc2c(Nc3ccc(F)c(Cl)c3)ncnc2cc1OC[C@H]1[C@@H]2COC[C@@H]21 [NT112]
bioavailability ([2]; IV 1 mg/Kg (reference)): 100%
bioavailability ([2]; po, 5 mg/kg): 68%
AUC(0-inf) ([2]; IV 1 mg/Kg): 248 ng·h/mL
AUC(0-t) ([2]; IV 1 mg/Kg): 220 ng·h/mL
Cmax ([2]; IV 1 mg/Kg): 59.3 ng/mL
clearance ([2]; IV 1 mg/Kg): 67.2 mL/min/kg
half-life ([2]; IV 1 mg/Kg): 6.05 h
Vd ([2]; IV 1 mg/Kg): 10.6 L/kg
AUC(0-inf) ([2]; PO 5 mg/Kg): 843 ng·h/mL
AUC(0-t) ([2]; PO 5 mg/Kg): 434 ng·h/mL
Cmax ([2]; PO 5 mg/Kg): 74.9 ng/mL
half-life ([2]; PO 5 mg/Kg): 20 h
exposure and oral bioavailability with oral administration, compared to afatinib ([2]; oral administration): higher exposure and better oral bioavailability
CL ([2]; PO 5 mg/Kg): 98.8 mL/min/kg
Vz ([2]; PO 5 mg/Kg): 51.55 L/kg
bioavailability ([3]; IV 1 mg/Kg (reference)): 100%
bioavailability ([3]; PO 5 mg/Kg): 49.7%
AUC(0-inf) ([3]; IV 1 mg/Kg): 592 ng·h/mL
AUC(0-t) ([3]; IV 1 mg/Kg): 575 ng·h/mL
Cmax ([3]; IV 1 mg/Kg): 236 ng/mL
half-life ([3]; IV 1 mg/Kg): 4.44 h
AUC(0-inf) ([3]; PO 5 mg/Kg): 1470 ng·h/mL
AUC(0-t) ([3]; PO 5 mg/Kg): 1420 ng·h/mL
Cmax ([3]; PO 5 mg/Kg): 272 ng/mL
half-life ([3]; PO 5 mg/Kg): 11.1 h
side effect (NCI-N87 xenograft; 15 mg/kg po qd, 4 weeks): without predefined side effect
body weight change (NCI-N87 xenograft; 30 mg/kg p.o. qd, 7 days/week, onset day 3, maximal day 11, dosing stopped, recovered by day 28): led to body weight loss
RTV T/C (NCI-N87 xenograft; day 7, 15 mg/kg po qd): < 30%
tumor growth inhibition (NCI-N87 xenograft; day 7, 15 mg/kg po qd): > 70%
RTV T/C (NCI-N87 xenograft; day 7, 30 mg/kg po qd): < 30%
tumor growth inhibition (NCI-N87 xenograft; day 7, 30 mg/kg po qd): > 70%

Other lines, results leading:

IC50 (ErbB2 (HER2)): 25 nM
IC50 [1]: 35.9 nM
SMILES: CO[C@@H]1CO[C@@H]2[C@H]1OC[C@@H]2Oc1cc2ncnc(Nc3ccc(F)c(Cl)c3)c2cc1NC(=O)/C=C/CN(C)C [Example 1, (E)-N-(7-((3R,3aS,6S,6aS)-hexahydro-3-methoxyfuro[3,2-b]furan-6-yloxy)-4-(3-chloro-4-fluorophenylamino)quinazolin-6-yl)-4-(dimethylamino)but-2-enamide]

IC50 (ErbB2 (HER2)): 6 nM
IC50 [1]: 19.1 nM
SMILES: CN(C)C/C=C/C(=O)Nc1cc2c(Nc3ccc(F)c(Cl)c3)ncnc2cc1OCC1C2COCC21 (stereo not drawn) [Example 2, (E)-N-(7-((3-oxa-bicyclo[3.1.0]hexan-6-yl)methoxy)-4-(3-chloro-4-fluorophenylamino)quinazolin-6-yl)-4-(dimethylamino)but-2-enamide]

IC50 (ErbB2 (HER2)): 91 nM
IC50 [1]: 157 nM
SMILES: CN(C)C/C=C/C(=O)Nc1cc2c(Nc3ccc(F)c(Cl)c3)ncnc2cc1OCC12COCC1C2 (stereo not drawn) [Example 5, (E)-N-(7-((3-oxa-bicyclo[3.1.0]hexan-1-yl)methoxy)-4-(3-chloro-4-fluorophenylamino)quinazolin-6-yl)-4-(dimethylamino)but-2-enamide]

bioavailability ([2]; IV 1 mg/Kg (reference)): 100%
bioavailability ([2]; po, 5 mg/kg): 44.7%
AUC(0-inf) ([2]; IV 1 mg/Kg): 147 ng·h/mL
AUC(0-t) ([2]; IV 1 mg/Kg): 137 ng·h/mL
Cmax ([2]; IV 1 mg/Kg): 55.6 ng/mL
clearance ([2]; IV 1 mg/Kg): 114 mL/min/kg
half-life ([2]; IV 1 mg/Kg): 5.12 h
Vd ([2]; IV 1 mg/Kg): 15.2 L/kg
AUC(0-inf) ([2]; PO 5 mg/Kg): 328 ng·h/mL
AUC(0-t) ([2]; PO 5 mg/Kg): 215 ng·h/mL
Cmax ([2]; PO 5 mg/Kg): 49.2 ng/mL
half-life ([2]; PO 5 mg/Kg): 11 h
CL ([2]; PO 5 mg/Kg): 254.3 mL/min/kg
Vz ([2]; PO 5 mg/Kg): 73.02 L/kg
bioavailability ([3]; IV 1 mg/Kg (reference)): 100%
bioavailability ([3]; PO 5 mg/Kg): 62%
AUC(0-t) ([3]; IV 1 mg/Kg): 54 ng·h/mL
Cmax ([3]; IV 1 mg/Kg): 109 ng/mL
MRT ([3]; IV 1 mg/Kg): 1.6 h
AUC(0-t) ([3]; PO 5 mg/Kg): 167 ng·h/mL
Cmax ([3]; PO 5 mg/Kg): 17.6 ng/mL
MRT ([3]; PO 5 mg/Kg): 9.3 h
SMILES: CN(C)C/C=C/C(=O)Nc1cc2c(Nc3ccc(F)c(Cl)c3)ncnc2cc1O[C@H]1CCOC1 [afatinib, reference compound]
